Test results from the SangsterLogP compilation.

test: method code SF-AS, from DOI: 10.1016/0165-022x(96)00008-5, PMID: 8844325

First: CC(C)(C)[N+]([O-])=Cc1ccncc1
Second: CC(C)(C)[N+]([O-])=Cc1ccc(Br)cc1
The logP of the first is lower: 0.4 for the first, 1.98 for the second.

First: Cc1cccc(C=[N+]([O-])C(C)(C)C)c1
Second: CC(C)(C)[N+]([O-])=Cc1cccc(O)c1
The logP of the first is higher: 1.58 for the first, 1 for the second.

First: CC(C)(C)[N+]([O-])=Cc1ccccc1Br
Second: CC(C)(C)[N+]([O-])=Cc1ccccc1O
The logP of the first is higher: 2.52 for the first, 1.31 for the second.

First: CC(C)(C)[N+]([O-])=Cc1ccc(O)cc1
Second: CC(C)(C)[N+]([O-])=Cc1ccc(Cl)cc1
The logP of the first is lower: 0.58 for the first, 2.39 for the second.

First: CC(C)(C)[N+]([O-])=Cc1ccc(C(=O)O)cc1
Second: CC(C)(C)[N+]([O-])=Cc1ccc([N+](=O)[O-])cc1
The logP of the first is lower: 1.05 for the first, 1.39 for the second.

Going from `Cc1ccccc1C=[N+]([O-])C(C)(C)C` to `CC(C)(C)[N+]([O-])=Cc1ccccc1[N+](=O)[O-]`, the logP falls from 1.53 to 0.84.

First: CC1(C)CCC(C(F)(F)F)=[N+]1[O-]
Second: CC1(C)CCC(c2ccccc2)=[N+]1[O-]
The logP of the first is lower: 0.2 for the first, 1.03 for the second.

Compared with `CC1(C)C=[N+]([O-])C(C)(C)C1`, `CC(C)(C)[N+]([O-])=Cc1cc[n+]([O-])cc1` is lower in logP: -0.15 for the first, -0.82 for the second.

First: COc1cc(OC)c(C=[N+]([O-])C(C)(C)C)c(OC)c1
Second: COc1cccc(C=[N+]([O-])C(C)(C)C)c1
The logP of the first is lower: 1.19 for the first, 1.41 for the second.

First: CC(C)(C)[N+]([O-])=Cc1cccc([N+](=O)[O-])c1
Second: CC(C)(C)[N+]([O-])=Cc1ccc(C#N)cc1
The logP of the first is higher: 1.3 for the first, 0.52 for the second.
